In data set [1] the test system is MMR-proficient primary tumor cultures and cancer cell lines. Description: RAD51 immunostaining (RAD51 foci formation) after olaparib, MMR-proficient cells. The data set is classed as cell-based, human. The note with it: 10 μM olaparib, 24 hours, average of 4 MMR-proficient cultures. As for the experimental part:
(§1) To investigate whether the DSB repair by HR pathway is functionally inactivated in MMR-deficient tumors, it was assessed the DSB repair activity in eight MMR-deficient and four MMR-proficient primary tumor cultures and cancer cell lines. The MMR status of these cells was analyzed using the 56-marker panel and confirmed by the Bethesda Panel.
(§2) Nine primary endometrial and ovarian tumor cell cultures were established from patients undergoing surgery at the Division of Gynecologic Oncology, University Hospitals Gasthuisberg, Leuven (Belgium). Only after providing informed consent, patients were included in the study. The following protocol was used to generate primary tumor cultures. First, tumor samples were placed into sterile RPMI medium supplemented with Penicillin/Streptomycin (1000 U/ml) and Fungizone (0.5 μg/ml) (all from Life Technologies) for transport from the surgery room to the cell culture laboratory. […]
(§3) Primary tumor cell cultures were grown in RPMI Medium 1640 (Gibco) supplemented with 20% fetal bovine serum, 2 mM L-Glutamine, 100 U/ml of penicillin, 100 μg/ml of streptomycin, 1 μg/ml of fungizone and 10 μg/ml of gentamicin up to 20 passages. […] They were also routinely monitored for Mycoplasma contamination and no Mycoplasma growth has been detected. […]

The test system of data set [2] is BRCA1-deficient cells. The note with it: 3 μM olaparib; cited from earlier work.
The subject of data set [3] is BRCA2-deficient cells. The conditions noted are these: 10 μM olaparib; cited from earlier work.
In data set [4] the test system is MMR-proficient cells. Description: Cell proliferation with xCELLigence RTCA system, MMR-proficient cells. The data set is classed as cell-based, human. The note with it: 1, 3 and 10 μM olaparib, 48 hours. As for the experimental part: (§4) As MMR-deficient tumors are characterized by reduced activity of the DSB repair by HR pathway, it was hypothesized that these tumors, similar to BRCA1-deficient tumors (Farmer et al., 2005), can be selectively targeted by PARP inhibition. All eight MMR-deficient and four MMR-proficient cultures were dose-dependently (1, 3 and 10 μM) exposed to olaparib and effects on proliferation were assessed.
Real-Time Cell Analyzer (RTCA) xCELLigence System (Roche Applied Science, Mannheim, Germany) was used to dynamically monitor cell proliferation rates. The system measures electrical impedance across microelectrodes on the bottom of tissue culture E-plates. The impedance measurement provides quantitative information about cell number, viability, morphology and adhesion. 5,000 cells/well were seeded on E-plate 16 (Roche) in 200 μl medium. […] Each treatment condition was measured in triplicate. Dynamic cell index values were monitored in five-minute intervals for 48 hours after treatments. […]
Cell Proliferation: Real-Time Cell Analyzer (RTCA) xCELLigence System (Roche) was used to dynamically monitor cell proliferation rates. […] Each condition was measured in triplicate and all experiments were done in duplicate at different time points. Dynamic cell index values were monitored for 48 hours after treatment.

Data set [5] deals with MMR-deficient cells. Description: Cell proliferation with xCELLigence RTCA system, MMR-deficient cells. The data set is classed as cell-based, human. The note with it: for decrease in proliferation versus untreated cells: average of 8 MMR-deficient cultures, 48 hours. How it is done:
as §4
Real-Time Cell Analyzer (RTCA) xCELLigence System (Roche Applied Science, Mannheim, Germany) was used to dynamically monitor cell proliferation rates. The system measures electrical impedance across microelectrodes on the bottom of tissue culture E-plates. The impedance measurement provides quantitative information about cell number, viability, morphology and adhesion. 5,000 cells/well were seeded on E-plate 16 (Roche) in 200 μl medium. 24 hours post-seeding, cells were treated with olaparib to the desired final concentration (1, 3, 10 μM olaparib). The final DMSO percent in all wells was 0.1%. Each treatment condition was measured in triplicate. Dynamic cell index values were monitored in five-minute intervals for 48 hours after treatments. Cell index values were normalized to the vehicle-treated control for each cell.
Cell Proliferation: Real-Time Cell Analyzer (RTCA) xCELLigence System (Roche) was used to dynamically monitor cell proliferation rates. 5,000 cells/well were seeded on E-plate 16 (Roche) in 200 μl medium. Olaparib (AZD-2281, JS Research Chemicals Trading) was dissolved in DMSO. 24 hours post-seeding, cells were treated with olaparib ([…]). Each condition was measured in triplicate and all experiments were done in duplicate at different time points. Dynamic cell index values were monitored for 48 hours after treatment.

Data set [6] deals with MMR-deficient primary tumor cultures and cancer cell lines. Description: RAD51 immunostaining (RAD51 foci formation) after olaparib, MMR-deficient cells. The class given is cell-based, human. The conditions noted are these: 10 μM olaparib, 24 hours, average of 8 MMR-deficient cultures. How it is done:
as §1, §2, §3

In data set [7] the test system is MMR-deficient and MMR-proficient tumor cells. Description: γH2AX immunostaining (unrepaired DNA damage) after olaparib. The class given is cell-based, human. The note with it: all cells regardless of MMR status. How it is done: Primary tumor cultures and immunofluorescence: Nine primary endometrial and ovarian tumor cell cultures were established from tumors of the patients undergoing surgery. Primary tumor cell cultures were grown in RPMI1640 medium (GIBCO) supplemented with 20% FBS, 2 mM L-Glutamine, 100 U/ml penicillin, 100 μg/ml streptomycin, 1 μg/ml fungizone and 10 μg/ml gentamicin up to 20 passages. 25,000 cells/well were seeded on eight-well slides (Nunc) in 400 μl medium and grown for 24 hours. Following exposure to 0 or 10 μM olaparib, slides were rinsed in PBS, fixed in paraformaldehyde at 37° C., permeabilized with 0.1% Triton X-100 and blocked with BSA. […] The percentage of foci positive cells (>5 foci per nucleus) was determined on a Zeiss LSM 510 inverted confocal microscope using Plan-Neofluar 40×/1.3 oil immersion objective. For each experiment, at least 100 nuclei were analyzed.
The degree of unrepaired DNA damage upon olaparib treatment was measured with γH2AX immunofluorescence. […]
γH2AX and RAD51 foci were visualized with Zeiss LSM 510 inverted confocal microscope using Plan-Neofluar 40x/1.3 oil immersion objective and excitation wavelengths of 488 and 750 nm (Chameleon coherent two-photon laser). […] Nuclei with >5 foci were scored positive, and at least 100 nuclei were counted per culture and per condition.

Entries after “also recorded” stand apart in the source; their conditions may differ.

For the compound `O=C(c1cc(Cc2n[nH]c(=O)c3ccccc23)ccc1F)N1CCN(C(=O)C2CC2)CC1` [olaparib], the entries for the “cells showing RAD51 foci formation (>5 foci per nucleus)” value in data set [1] and in data set [6] were 37±4% and 19±3%, respectively. Also, the decrease in viability in data set [2] is given as 78%; in data set [3], 91%. In addition, the “effect on proliferation (in words)” value is “no effect; also recorded: did not respond to olaparib” in data set [4]; “dose-dependent decrease in proliferation” in data set [5] (1, 3 and 10 μM olaparib, MMR-deficient cells). Also, the “decrease in proliferation versus untreated cells” value in data set [5] (1 μM olaparib) was 15%; in data set [5] (3 μM olaparib), 20%; in data set [5] (10 μM olaparib), 42%. Moreover, in data set [7] (10 μM olaparib), the “increase in number of γH2AX foci compared to baseline” value is listed as 4-6 fold. Moreover, in data set [7] (olaparib), the “number of γH2AX foci (in words)” value is reported as “drastically increased”.
